Consider 26 compounds from US10414763B2 (CANCER RESEARCH TECHNOLOGY LIMITED, priority 2014, dated 2019).

Structures are written as SMILES. Bounds are passed on as bounds.

The term IC50 denotes the concentration needed to halve the response being measured.

This experiment addresses T1, full-length human PKCι (Homo sapiens, UniProt P41743).
T1 construct: Recombinant, full-length human PKCι expressed in Sf21 insect cells is also commercially available; purchased EMD Millipore; host or cells: Sf21 insect cells (baculovirus)
T1 sequence (P41743 1-596): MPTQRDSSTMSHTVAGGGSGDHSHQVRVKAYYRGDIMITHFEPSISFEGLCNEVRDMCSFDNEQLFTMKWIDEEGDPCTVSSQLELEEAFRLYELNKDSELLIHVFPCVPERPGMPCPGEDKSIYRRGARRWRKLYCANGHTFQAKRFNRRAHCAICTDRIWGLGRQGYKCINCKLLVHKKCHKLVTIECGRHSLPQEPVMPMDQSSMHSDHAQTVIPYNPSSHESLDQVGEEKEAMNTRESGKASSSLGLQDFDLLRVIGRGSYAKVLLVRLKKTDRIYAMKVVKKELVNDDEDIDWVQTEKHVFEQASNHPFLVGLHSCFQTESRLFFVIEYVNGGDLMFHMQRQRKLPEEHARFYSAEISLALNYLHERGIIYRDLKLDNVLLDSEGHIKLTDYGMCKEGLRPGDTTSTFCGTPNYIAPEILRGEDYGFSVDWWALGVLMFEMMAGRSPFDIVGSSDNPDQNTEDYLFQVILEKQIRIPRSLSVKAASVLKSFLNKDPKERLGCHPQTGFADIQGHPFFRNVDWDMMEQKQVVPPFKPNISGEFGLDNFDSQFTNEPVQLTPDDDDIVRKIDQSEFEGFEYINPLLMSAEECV
The experiment can be described thus: PKCι IC50 IMAP fluorescence polarisation assay, full-length enzyme, 150 μM ATP. The experiment is classed as biochemical. The note with it: read-out: IC50 in IMAP assay against full length PKCi at 150 μM ATP. The gist of the method: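 IMAP fluorescence polarisation kinase assay: 15 pM baculovirus-expressed human PKCiota with 100 nM FAM-pseudosubstrate peptide and 150 μM ATP, 1 h at 25 °C. IMAP detection reagent then 2 h at 25 °C before FP measurement. Inhibition referenced to no-compound and no-enzyme controls for IC50 fitting.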
In general terms: Fluorescence polarisation rises when a labelled molecule tumbles more slowly, as on binding a larger partner.
Turning to `COCc1ccccc1-c1cc2c(-c3nc(N[C@H]4CCNCC4(C)C)c4c(C5CC5)cncc4n3)ccnc2[nH]1` [Example 357, {5-Cyclopropyl-2-[2-(2-methoxymethyl-phenyl)-1H-pyrrolo[2,3-b]pyridin-4-yl]-pyrido[3,4-d]pyrimidin-4-yl}-((S)-3,3-dimethyl-piperidin-4-yl)-amine], the IC50 is less than 100 nM. On to `CC1(C)CNCC[C@@H]1Nc1nc(-c2ccnc(Nc3c(F)cccc3F)c2)nc2cncc(C3CCC3)c12` [Example 255, {5-Cyclobutyl-2-[2-(2,6-difluoro-phenylamino)-pyridin-4-yl]-pyrido[3,4-d]pyrimidin-4-yl}-((S)-3,3-dimethyl-piperidin-4-yl)-amine], for which the IC50 was less than 100 nM.

As for `FC(F)(F)c1cc2c(-c3nc(N4CCCC5NCCCC54)c4c(C5CCC5)cncc4n3)ccnc2[nH]1` (racemic) [Example 81, 5-Cyclobutyl-4-(octahydro-[1,5]naphthyridin-1-yl)-2-(2-trifluoromethyl-1H-pyrrolo[2,3-b]pyridin-4-yl)-pyrido[3,4-d]pyrimidine], the IC50 is less than 100 nM.

As for `CC1CNCCC1Nc1nc(-c2ccnc(Nc3nc(F)c(F)cc3F)c2)nc2cncc(C3CCC3)c12` (centres unmarked) [Example 126, {5-Cyclobutyl-2-[2-(3,5,6-trifluoro-pyridin-2-ylamino)-pyridin-4-yl]-pyrido[3,4-d]pyrimidin-4-yl}-(3-methyl-piperidin-4-yl)-amine], the IC50 was less than 100 nM.

For the compound `CC1(C)CNCC[C@@H]1Nc1nc(-c2ccnc(Nc3ncc(Cl)cc3Cl)c2)nc2cncc(C3CCC3)c12` [Example 337, 5-Cyclobutyl-2-[2-[(3,5-dichloro-2-pyridyl)amino]-4-pyridyl]-N-[(4S)-3,3-dimethyl-4-piperidyl]pyrido[3,4-d]pyrimidin-4-amine], the IC50 is less than 100 nM.

As for `Cc1cc2c(-c3nc(NC4CCNCC4(C)C)c4c(C5CC5)cncc4n3)ccnc2[nH]1` (centres unmarked) [Example 100, [5-Cyclopropyl-2-(2-methyl-1H-pyrrolo[2,3-b]pyridin-4-yl)-pyrido[3,4-d]pyrimidin-4-yl]-(3,3-dimethyl-piperidin-4-yl)-amine], the IC50 was less than 100 nM. As for `c1ccn2nc(Nc3cc(-c4nc(N5CCC6CNCCC65)c5c(C6CC6)cncc5n4)ccn3)nc2c1` (centres unmarked) [Example 152, {4-[5-Cyclopropyl-4-(octahydro-pyrrolo[3,2-c]pyridin-1-yl)-pyrido [3,4-d]pyrimidin-2-yl]-pyridin-2-yl}-[1,2,4]triazolo[1,5-a] pyridin-2-yl-amine], the IC50 lay in the range of 1000 to 10000 nM. For `Cc1cc2c(-c3nc(N4CC[C@]5(O)CNCC[C@H]45)c4c(C5CCC5)cncc4n3)ccnc2[nH]1` (racemic) [Example 117, (±)-(3aS,7aS)-1-[5-Cyclobutyl-2-(2-methyl-1H-pyrrolo[2,3-b]pyridin-4-yl)-pyrido[3,4-d]pyrimidin-4-yl]-octahydro-pyrrolo [3,2-c]pyridin-3a-ol] the value was less than 100 nM; for `CSc1cc2c(-c3nc(N(C)C4CCNCC4)c4c(C5CC5)cncc4n3)ccnc2[nH]1` [Example 119, [5-Cyclopropyl-2-(2-methylsulfanyl-1H-pyrrolo[2,3-b]pyridin-4-yl)-pyrido[3,4-d]pyrimidin-4-yl]-methyl-piperidin-4-yl-amine], less than 100 nM. Next, `Cn1cc(-c2cc3c(-c4nc(N5CCNCC5)c5c(C6CCC6)cncc5n4)ccnc3[nH]2)cn1` [Example 132]: less than 100 nM; `CC1(C)CC(Nc2nc(-c3ccnc(Nc4nc(F)c(F)cc4F)c3)nc3cncc(C4CCC4)c23)CCN1` (centres unmarked) [Example 137, {5-Cyclobutyl-2-[2-(3,5,6-trifluoro-pyridin-2-ylamino)-pyridin-4-yl]-pyrido[3,4-d]pyrimidin-4-yl}-(2,2-dimethyl-piperidin-4-yl)-amine]: less than 100 nM; `C[C@@H]1CNCC[C@@H]1Nc1nc(-c2ccnc(Nc3ncc(F)cc3F)c2)nc2cncc(C3CCC3)c12` (racemic) [Example 283, {5-Cyclobutyl-2-[2-(3,5-difluoro-pyridin-2-ylamino)-pyridin-4-yl]-pyrido[3,4-d]pyrimidin-4-yl}-(rac-(3R,4S)-3-methyl-piperidin-4-yl)-amine]: less than 100 nM. Next, `CC1(C)CNCC[C@@H]1Nc1nc(-c2ccnc(Nc3ccc4ccccc4n3)c2)nc2cncc(C3CC3)c12` [Example 378, {5-Cyclopropyl-2-[2-(quinolin-2-ylamino)-pyridin-4-yl]-pyrido[3,4-d]pyrimidin-4-yl}-((S)-3,3-dimethyl-piperidin-4-yl)-amine]: less than 100 nM; `O[C@@H]1CNCC[C@H]1Nc1nc(-c2ccnc3[nH]c4ccccc4c23)nc2cncc(C3CCC3)c12` (racemic) [Example 345, rac-(3R,4R)-4-[5-Cyclobutyl-2-(9H-pyrido[2,3-b]indol-4-yl)-pyrido[3,4-d]pyrimidin-4-ylamino]-piperidin-3-ol]: less than 100 nM; `Clc1ccccc1-c1cc2c(-c3nc(N4CCC5NCCCC54)c4c(C5CC5)cncc4n3)ccnc2[nH]1` (centres unmarked) [Example 129, 2-[2-(2-Chloro-phenyl)-1H-pyrrolo[2,3-b]pyridin-4-yl]-5-cyclopropyl-4-(octahydro-pyrrolo[3,2-b]pyridin-1-yl)-pyrido [3,4-d]pyrimidine]: less than 100 nM. `Cc1nc(Nc2cc(-c3nc(N[C@H]4CCNCC4(C)C)c4c(C5CCC5)cncc4n3)ccn2)ccc1C#N` [Example 272]: the IC50 was less than 100 nM.

Turning to `OC[C@H]1CNCCN1c1nc(-c2ccnc3[nH]c(C(F)(F)F)cc23)nc2cncc(C3CC3)c12` [Example 6, {(R)-1-[5-Cyclopropyl-2-(2-trifluoromethyl-1H-pyrrolo[2,3-b]pyridin-4-yl)-pyrido[3,4-d]pyrimidin-4-yl]-piperazin-2-yl}-methanol], the IC50 was 100 to 1000 nM.

Take `c1ccc(Sc2cc3c(-c4nc(N5CCNCC5)c5c(C6CC6)cncc5n4)ccnc3[nH]2)cc1` [Example 14, 5-Cyclopropyl-2-(2-phenylsulfanyl-1H-pyrrolo[2,3-b]pyridin-4-yl)-4-piperdzin-1-yl-pyrido[3,4-d] pyrimidine]: the concentration for half-maximal inhibition (IC50) is less than 100 nM. Turning to `Cc1nc(Nc2cc(-c3nc(N[C@@H]4CCNC[C@@H]4O)c4c(C5CCC5)cncc4n3)ccn2)ccc1C#N` (racemic) [Example 313, 6-{4-[5-Cyclobutyl-4-(rac-(3S,4R)-3-hydroxy-piperidin-4-ylamino)-pyrido[3,4-d]pyrimidin-2-yl]-pyridin-2-ylamino}-2-methyl-nicotinonitrile], the IC50 was less than 100 nM. As to `NC1CCN(c2nc(-c3ccnc4[nH]c5ccccc5c34)nc3cncc(C4CCC4)c23)C1` (centres unmarked) [Example 214, 1-[5-Cyclobutyl-2-(9H-pyrido[2,3-b]indol-4-yl)-pyrido[3,4-d]pyrimidin-4-yl]-pyrrolidin-3-ylamine], the IC50 was less than 100 nM. On to `CC1(C)CNCC[C@@H]1Nc1nc(-c2ccnc(Nc3ccc(F)cn3)c2)nc2cncc(C3CC3)c12` [Example 393, {5-Cyclopropyl-2-[2-(5-fluoro-pyridin-2-ylamino)-pyridin-4-yl]-pyrido[3,4-d]pyrimidin-4-yl}-((S)-3,3-dimethyl-piperidin-4-yl)-amine], for which the IC50 was less than 100 nM.

As for `CN(c1nc(-c2ccnc3[nH]c(Sc4ccccc4)cc23)nc2cncc(C3CCC3)c12)C1CCNCC1` [Example 28, [5-Cyclobutyl-2-(2-phenylsulfanyl-1H-pyrrolo[2,3-b]pyridin-4-yl)-pyrido[3,4-d]pyrimidin-4-yl]-methyl-piperidin-4-yl-amine], the IC50 is less than 100 nM.

Regarding `O[C@@H]1CNCC[C@H]1Nc1nc(-c2ccnc(Nc3ncccc3F)c2)nc2cncc(C3CCC3)c12` (racemic) [Example 286, rac-(3R,4R)-4-{5-Cyclobutyl-2-[2-(3-fluoro-pyridin-2-ylamino)-pyridin-4-yl]-pyrido[3,4-d]pyrimidin-4-ylamino}-piperidin-3-ol], the IC50 is less than 100 nM.

Consider `C[C@H]1CNCC[C@@H]1Nc1nc(-c2ccnc(Nc3ncccc3F)c2)nc2cncc(C3CCC3)c12` (single isomer, unassigned) [Example 342, 5-Cyclobutyl-2-[2-[(3-fluoro-2-pyridyl)amino]-4-pyridyl]-N-[(3S,4S)-3-methyl-4-piperidyl]pyrido[3,4-d]pyrimidin-4-amine or enantiomer], for which the IC50 is less than 100 nM. For `O[C@@H]1CNCC[C@H]1Nc1nc(-c2ccnc(Nc3ncc(F)cc3F)c2)nc2cncc(C3CC3)c12` (racemic) [Example 309, rac-(3R,4R)-4-{5-Cyclopropyl-2-[2-(3,5-difluoro-pyridin-2-ylamino)-pyridin-4-yl]-pyrido[3,4-d]pyrimidin-4-ylamino}-piperidin-3-ol] the value was less than 100 nM; for `CN(c1nc(-c2ccnc3[nH]c4ccccc4c23)nc2cncc(C3CCC3)c12)[C@@H]1CCNC[C@@]1(C)O` (racemic) [Example 77, (±)-(3,4-trans)-4-{[5-Cyclobutyl-2-(9H-pyrido[2,3-b]indol-4-yl)-pyrido[3,4-d]pyrimidin-4-yl]-methyl-amino}-3-methyl-piperidin-3-ol], less than 100 nM.
